This assay deals with T1, HIV-1 integrase (HIV-1 M:B_HXB2R, UniProt P04585).
T1 construct: gene gag-pol; WT integrase, cut from Gag-Pol polyprotein
As to the kind of experiment: ELISA overall integration assay, biotin / digoxigenin labelled oligonucleotides. The note with it: overall integration reaction; 10 mM MgCl2, 5 mM DTT, 20 mM HEPES pH 7.5, 5% PEG, 15% DMSO, 37 °C, 1 h. The class given is biochemical. From the text:
ELISA overall integration assay, biotin / digoxigenin labelled oligonucleotides on HIV-1 integrase

Structures are written as SMILES. Bounds are passed on as bounds.

As for `CC(=O)N1C(=O)C(=Nc2ccc(S(=O)(=O)Nc3nc(C)cc(C)n3)cc2)c2cc(Br)ccc21` [SPIII-5Br-AC], the “IC50 ^a (μM/ml)” value is recorded as > 250 μM/ml.

Take `Cc1cc(C)nc(NS(=O)(=O)c2ccc(N=C3C(=O)N(C(=O)c4ccccc4)c4ccc(Br)cc43)cc2)n1` [SPIII-5Br-BZ]: the “IC50 ^a (μM/ml)” value is reported as > 250 μM/ml.

Turning to `CC(=O)N1C(=O)C(=Nc2ccc(S(=O)(=O)Nc3nc(C)cc(C)n3)cc2)c2cc(C)ccc21` [SPIII-5Me-AC, 4-(1-acetyl-5-methyl-2-oxoindolin-3-ylideneamino)-N-(4,6-dimethylpyrimidin-2-yl)benzenesulfonamide], the “IC50 ^a (μM/ml)” value is recorded as 53.62±11.67 μM/ml.

These data come from article PMC3040873, “Design, Synthesis and antiHIV activity of Novel Isatine-Sulphonamides” (Indian Journal of Pharmaceutical Sciences, 2008).
